Measurements as given in patent US11832638B2, “N-acyl derivatives of gamma amino-butyric acid and beta alanine as food flavouring compounds” (GIVAUDAN SA, priority 2012, dated 2023).

Legend:
[1] = Chocolate milk with different fat content
Procedure: Chocolate Milk With Different Fat Content
In a chocolate milk 1.8% and 3% fat C18:2-gaba was added at 0.5 and 1 ppm.
Samples were evaluated by expert tasters. Tasters were asked to describe the samples focusing on authentic taste, mouthfeel, fullness, salivation, sweetness, juiciness, richness, long lastingness and fattiness.

[2] = Tasting in pilaf (cooked rice with flavoured butter); conditions: standard cooked rice with 10% of the C18:2-gaba flavoured butter
Procedure: The following formulations were prepared and tasted by trained panelists.

[3] = Test on menthol fondant (1%); conditions: 2 ppm, fondant 65%, sugar syrup 34%, menthol flavour 1%
Description: Test on Menthol Fondant (1%)
Base is Fondant 65%, sugar syrup 34% and a proprietary menthol flavour at 1%

[4] = Test on Baileys cream liqueur; conditions: 1 ppm
Procedure: Test on Baileys Cream Liqueur:
In Baileys cream liqueur (Market Product) C18:2-gaba was added at 1 ppm.
Samples were evaluated by expert tasters. Tasters were asked to describe the samples focusing on authentic taste, alcohol impact, mouthfeel, fullness, salivation, sweetness, bitterness, richness, long lastingness and fattiness.
Base is Baileys cream liqueur

[5] = Test on Tang powdered soft drink; conditions: 0.5 ppm, orange flavoured Tang
Procedure: In an orange flavoured Tang powdered soft drink (market product) sweetened with sucrose plus high intensity sweetener and containing citric acid and C18:2-gaba.
All samples were evaluated by expert tasters. Tasters were asked to describe the samples focusing on authentic taste, mouthfeel & body, enhancement, richness, juiciness, long lastingness, salivation, sweetness, masking off notes of high intensity sweetener
Base is Orange flavoured Tang

Test on Eru Prestige = conditions: 0.5 ppm

CCCCC/C=C\C/C=C\CCCCCCCC(=O)NCCCC(=O)O [C18:2-gaba]
description by expert tasters ([1]; 0.5 ppm, chocolate milk 1.8% fat): stronger cocoa note, more chocolate vs cocoa | description by expert tasters ([1]; 0.5 ppm, chocolate milk 3% fat): very creamy, enhanced cocoa note | description by expert tasters ([1]; 1 ppm, chocolate milk 1.8% fat): very creamy, chocolate, long-lasting creamy and chocolate taste | description by expert tasters ([1]; 1 ppm, chocolate milk 3% fat): very creamy, lasting, sweet, almost taste like chocolate ice cream | tasting result (trained panelists) [2]: more mouthfeel, with a lingering creamy authentic butter taste | taste description [3]: increased menthol impact, stronger cooling more sweet, long lasting, fresh | description by expert tasters [4]: strongly enhanced alcohol effect, more cocoa, very creamy and long lasting aftertaste | description by expert tasters [5]: enhances sweet juicy orange notes, enhanced mouthfeel. Additionally, the off-notes of the high intensity sweetener were suppressed | taste description (Test on Eru Prestige): full salty, much more cheese bite, umami, lingering, long lasting
